Data: PubChem BioAssay (NCI)
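How tested: cells in 96-well plates exposed to compound for 48 hours at five concentrations. At the GI50, growth is halved. TGI is the concentration that stops growth completely.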

Key:
Assay in all cases: DTP human tumour cell line panel, 48 h
MDA-MB-435 = system: MDA-MB-435
KM12 colon = system: KM12 colon
SK-OV-3 ovarian = system: SK-OV-3 ovarian
SR leukemia = system: SR leukemia
RXF 393 renal = system: RXF 393 renal
MDA-MB-231 breast = system: MDA-MB-231 breast
OVCAR-4 ovarian = system: OVCAR-4 ovarian
NCI/ADR-RES ovarian = system: NCI/ADR-RES ovarian
OVCAR-8 ovarian = system: OVCAR-8 ovarian
ACHN renal = system: ACHN renal

Question: How did the GI50 (MDA-MB-435) turn out when O=C(NCc1ccco1)c1ccc(NC2=C(Cl)C(=O)N(Cc3ccccc3)C2=O)cc1 was run?
Answer: 16.3 µM

Question: And the TGI (MDA-MB-435)?
Answer: 37.6 µM

Question: What about the GI50 (KM12 colon) of the same compound?
Answer: 17.2 µM

Question: And the TGI (KM12 colon)?
Answer: 36.2 µM

Question: What about the GI50 (SK-OV-3 ovarian) of the same compound?
Answer: 53.2 µM

Question: What about the TGI (SK-OV-3 ovarian) of the same compound?
Answer: > 100 µM

Question: What about the GI50 (SR leukemia) of the same compound?
Answer: 2.21 µM

Question: And the TGI (SR leukemia)?
Answer: 7.14 µM

Question: What about the GI50 (RXF 393 renal) of the same compound?
Answer: 40.1 µM

Question: What about the TGI (RXF 393 renal) of the same compound?
Answer: > 100 µM

Question: What about the GI50 (MDA-MB-231 breast) of the same compound?
Answer: 24 µM

Question: And the TGI (MDA-MB-231 breast)?
Answer: 62.1 µM

Question: And the GI50 (OVCAR-4 ovarian)?
Answer: 51.3 µM

Question: What about the TGI (OVCAR-4 ovarian) of the same compound?
Answer: > 100 µM

Question: And the GI50 (NCI/ADR-RES ovarian)?
Answer: 18.3 µM

Question: And the TGI (NCI/ADR-RES ovarian)?
Answer: 39.5 µM

Question: And the GI50 (OVCAR-8 ovarian)?
Answer: 42.5 µM

Question: What about the TGI (OVCAR-8 ovarian) of the same compound?
Answer: > 100 µM

Question: With OCC1OC(n2cnc3c(Cl)nc(Cl)cc32)C(O)C1O (stereo not drawn) as the compound, how does the GI50 (MDA-MB-435) read?
Answer: > 100 µM

Question: And the TGI (MDA-MB-435)?
Answer: > 100 µM

Question: And the GI50 (KM12 colon)?
Answer: > 100 µM

Question: And the TGI (KM12 colon)?
Answer: > 100 µM

Question: What about the GI50 (SK-OV-3 ovarian) of the same compound?
Answer: > 100 µM

Question: What about the TGI (SK-OV-3 ovarian) of the same compound?
Answer: > 100 µM

Question: What about the GI50 (RXF 393 renal) of the same compound?
Answer: > 100 µM

Question: And the TGI (RXF 393 renal)?
Answer: > 100 µM

Question: What about the GI50 (ACHN renal) of the same compound?
Answer: > 100 µM

Question: What about the TGI (ACHN renal) of the same compound?
Answer: > 100 µM

Question: What about the GI50 (NCI/ADR-RES ovarian) of the same compound?
Answer: > 100 µM

Question: What about the TGI (NCI/ADR-RES ovarian) of the same compound?
Answer: > 100 µM

Question: What about the GI50 (OVCAR-8 ovarian) of the same compound?
Answer: > 100 µM

Question: What about the TGI (OVCAR-8 ovarian) of the same compound?
Answer: > 100 µM

Question: What does the source list for CN(C)CCCNC(=O)c1cncnc1Nc1ccc(OCc2cccc(F)c2)c(Cl)c1?
Answer: GI50 (MDA-MB-435): 1.8 µM; TGI (MDA-MB-435): 3.33 µM; GI50 (KM12 colon): 1.74 µM; TGI (KM12 colon): 3.33 µM; GI50 (SK-OV-3 ovarian): 1.72 µM; TGI (SK-OV-3 ovarian): 3.23 µM; GI50 (RXF 393 renal): 1.51 µM; TGI (RXF 393 renal): 2.87 µM; GI50 (ACHN renal): 1.7 µM; TGI (ACHN renal): 3.06 µM; GI50 (MDA-MB-231 breast): 1.69 µM; TGI (MDA-MB-231 breast): 3.14 µM; GI50 (OVCAR-4 ovarian): 1.83 µM; TGI (OVCAR-4 ovarian): 4.36 µM; GI50 (NCI/ADR-RES ovarian): 1.89 µM; TGI (NCI/ADR-RES ovarian): 3.77 µM

Question: Which results are given for Cc1nn(-c2nc3ccccc3s2)c2c1C(=O)c1ccccc1-2?
Answer: TGI (KM12 colon): > 100 µM; TGI (SK-OV-3 ovarian): > 100 µM; TGI (SR leukemia): > 100 µM; TGI (RXF 393 renal): > 100 µM; TGI (ACHN renal): > 100 µM; TGI (OVCAR-4 ovarian): 64.1 µM

Question: CCS(=O)(=O)Nc1cccc(Nc2c3cccc(C)c3nc3c(C)cccc23)c1OC was tested. Which GI50 (MDA-MB-435) did it give?
Answer: 4.05 µM

Question: And the TGI (MDA-MB-435)?
Answer: > 86 µM

Question: What about the GI50 (KM12 colon) of the same compound?
Answer: 2.26 µM

Question: And the TGI (KM12 colon)?
Answer: > 31.2 µM

Question: What about the GI50 (SK-OV-3 ovarian) of the same compound?
Answer: 1.61 µM

Question: And the TGI (SK-OV-3 ovarian)?
Answer: 29.7 µM

Question: What about the GI50 (RXF 393 renal) of the same compound?
Answer: 1.98 µM

Question: What about the TGI (RXF 393 renal) of the same compound?
Answer: 13.2 µM

Question: And the GI50 (ACHN renal)?
Answer: 0.326 µM

Question: And the TGI (ACHN renal)?
Answer: 16.5 µM

Question: What about the GI50 (MDA-MB-231 breast) of the same compound?
Answer: 5.2 µM

Question: And the TGI (MDA-MB-231 breast)?
Answer: 41.4 µM

Question: And the GI50 (OVCAR-4 ovarian)?
Answer: 9.78 µM

Question: What about the TGI (OVCAR-4 ovarian) of the same compound?
Answer: > 75.8 µM

Question: What about the GI50 (NCI/ADR-RES ovarian) of the same compound?
Answer: 3.23 µM

Question: And the TGI (NCI/ADR-RES ovarian)?
Answer: 60.2 µM

Question: What about the GI50 (OVCAR-8 ovarian) of the same compound?
Answer: 1.19 µM

Question: And the TGI (OVCAR-8 ovarian)?
Answer: 74.5 µM

Question: Which results are given for CCCCN(CCCC)CCCn1c(=O)c2c3ccccc3n(C)c2n2nnc(-c3ccccc3)c12?
Answer: GI50 (MDA-MB-435): 39 µM; TGI (MDA-MB-435): > 100 µM; GI50 (KM12 colon): 34.3 µM; TGI (KM12 colon): > 100 µM; GI50 (SK-OV-3 ovarian): 30.3 µM; TGI (SK-OV-3 ovarian): > 100 µM; GI50 (RXF 393 renal): 14.1 µM; TGI (RXF 393 renal): 43 µM; GI50 (ACHN renal): 34.7 µM; TGI (ACHN renal): > 100 µM; GI50 (MDA-MB-231 breast): 36.6 µM; TGI (MDA-MB-231 breast): > 100 µM; GI50 (OVCAR-4 ovarian): 17.6 µM; TGI (OVCAR-4 ovarian): 83.9 µM; GI50 (NCI/ADR-RES ovarian): 14.3 µM; TGI (NCI/ADR-RES ovarian): 67.7 µM; GI50 (OVCAR-8 ovarian): 39.7 µM; TGI (OVCAR-8 ovarian): > 100 µM

Question: Which results are given for COc1cc(OC)c(NC(=O)c2cc3ccccc3cc2O)cc1Cl?
Answer: GI50 (MDA-MB-435): 2.84 µM; TGI (MDA-MB-435): 9.69 µM; GI50 (KM12 colon): 3.07 µM; TGI (KM12 colon): 11.4 µM; GI50 (SR leukemia): 5.25 µM; TGI (SR leukemia): 91.5 µM; GI50 (RXF 393 renal): 3.82 µM; TGI (RXF 393 renal): 8.51 µM; GI50 (ACHN renal): 2.51 µM; TGI (ACHN renal): 7.19 µM; GI50 (MDA-MB-231 breast): 1.78 µM; TGI (MDA-MB-231 breast): 4.78 µM; GI50 (OVCAR-4 ovarian): 3 µM; TGI (OVCAR-4 ovarian): > 100 µM; GI50 (NCI/ADR-RES ovarian): 2.63 µM; TGI (NCI/ADR-RES ovarian): 9.33 µM; GI50 (OVCAR-8 ovarian): 2.88 µM; TGI (OVCAR-8 ovarian): 8.45 µM
